The subject of test [1] is C. albicans ATCC MYA-2310(S) (strain E). Nature of the test: Antifungal MIC determination (CLSI M27-A3, 96-well). To be noted: strain E; compounds 1-4n and AmB; 48 h, RPMI 1640. Format: cell-based, Candida albicans. The procedure:
(§1) Fungal MIC determination experiments were performed using untreated 96-well plates (Corning). Cells were counted either by using a hemocytometer (Hausser Scientific, Horsham, Pa., USA) or by measuring optical density at attenuance of 600 nm (OD600) by using a Genesys 20 spectrophotometer (Thermo Scientific, Waltham, Mass., USA). Spectrophotometric and colorimetric measurements in 96-well plates were performed using a SpectraMax M5 spectrometer (Molecular Devices, Sunnyvale, Calif., USA).
(§2) Yeast strains Candida albicans ATCC 10231 (strain A), C. albicans ATCC 64124 (strain B), and C. albicans ATCC MYA-2876(S) (strain C) were kindly provided by Dr. Jon Y. Takemoto (Utah State University, Logan, UT, USA). C. albicans ATCC MYA-90819(R) (strain D), C. albicans ATCC MYA-2310(S) (strain E), C. albicans ATCC 1237(R) (strain F), C. albicans ATCC MYA-1003(R) (strain G), Candida glabrata ATCC 2001 (strain H), Candida krusei ATCC 6258 (strain I), and Candida parapsilosis ATCC 22019 (strain J) were obtained from the American Type Culture Collection (ATCC, Manassas, Va., USA). The (S) and (R) indicate that ATCC reports these strains to be susceptible (S) and resistant (R) to ITC and FLC. The filamentous fungal strains Aspergillus flavus ATCC MYA-3631 (strain K), and Aspergillus terreus ATCC MYA-3633 (strain M) were also obtained from the American Type Culture Collection (ATCC, Manassas, Va., USA). Aspergillus nidulans ATCC 38163 (strain L) was kindly provided by Dr. Jon S. Thorson (University of Kentucky, Lexington, Ky., USA), respectively. Yeast strains were cultured at 35° C. Filamentous fungal strains were cultured at 25° C. and the spores were harvested. All fungal strains were cultured in RPMI 1640 medium (catalog # R6504, Sigma-Aldrich Chemical Co., St. Louis, Mo.) buffered to pH 7.0 with 0.165 M morpholinepropanesulfonic acid (MOPS) buffer (Sigma-Aldrich Chemical Co.).
(§3) The MIC values against fungal strains were determined based on a previously published protocol. MIC values for ebsulfur (2a) analogues against fungal cells were evaluated in 96-well plates as described in the CLSI document M27-A3 with minor modifications. […] Therefore, potato dextrose broth (PDB) was used to grow the yeast inocula of all strains tested, which were later diluted in RPMI 1640 medium to perform determination of MIC values. […] The tested compounds (10 mg/mL) were diluted to the working stocks (500 μg/mL) by addition of DMSO. Two-fold serial dilution of the working stocks was prepared by addition of RPMI 1640 medium (100 μL) and cell suspension (100 μL) to 96-well microtiter plate to achieve final drug and inoculum concentrations ranging from 12.5-0.02 μg/mL and 5×10^3 CFU/mL, respectively. Plates were incubated for 48 h at 35° C. […]

Test [2] has as its system C. albicans ATCC MYA-2876(S) (strain C). Described as above. Format: cell-based, Candida albicans. The following applies: strain C; compounds 1-4n and AmB; 48 h, RPMI 1640. The procedure:
as §1, §2, §3

The subject of test [3] is C. albicans ATCC MYA-1003(R) (strain G). In words: microbe, parasite or virus in culture. Format: cell-based, Candida albicans. The following applies: strain G; compounds 1-4n and AmB; 48 h, RPMI 1640. The procedure:
as §1, §2, §3

Test [4] relates to C. albicans ATCC 90819(R) (strain D). In words: microbe, parasite or virus in culture. Format: cell-based, Candida albicans. The following applies: strain D; compounds 1-4n and AmB; 48 h, RPMI 1640. The procedure:
as §1, §2, §3

The subject of test [5] is C. albicans ATCC MYA-1237(R) (strain F). In words: microbe, parasite or virus in culture. Format: cell-based, Candida albicans. To be noted: strain F; compounds 1-4n and AmB; 48 h, RPMI 1640. The procedure:
as §1, §2, §3

For test [6], the system named is C. albicans ATCC 64124 (strain B). In words: microbe, parasite or virus in culture. Format: cell-based, Candida albicans. To be noted: strain B; compounds 1-4n and AmB; 48 h, RPMI 1640. The procedure: as §1, §2, §3
Test [7] concerns Aspergillus flavus ATCC MYA-3631 (strain K). Nature of the test: Antifungal MIC determination, filamentous fungi spores. Format: cell-based. The following applies: all compounds. The protocol: as §1, §2
(§4) The MIC values against fungal strains were determined based on a previously published protocol. MIC values for ebsulfur (2a) analogues against fungal cells were evaluated in 96-well plates as described in the CLSI document M27-A3 with minor modifications. […] Therefore, potato dextrose broth (PDB) was used to grow the yeast inocula of all strains tested, which were later diluted in RPMI 1640 medium to perform determination of MIC values. […] The tested compounds (10 mg/mL) were diluted to the working stocks (500 μg/mL) by addition of DMSO. Two-fold serial dilution of the working stocks was prepared by addition of RPMI 1640 medium (100 μL) and cell suspension (100 μL) to 96-well microtiter plate to achieve final drug and inoculum concentrations ranging from 12.5-0.02 μg/mL and 5×10^3 CFU/mL, respectively. Plates were incubated for 48 h at 35° C.
(§5) MIC assays for the spore-forming filamentous fungi, such as strain A. flavus ATCC MYA-3631 (strain K), were performed in a similar fashion. The filamentous fungal strains were first cultured at 25° C. on potato dextrose agar (PDA) plates for 3-5 days or until confluent. Spores were collected by washing the surface of the agar plates with dd H2O (5 mL) and then isolated the spores by gravity filtration (the spores are H2O soluble). […] Researchers working with spores should wear a facemask to prevent spore inhalation.

Test [8] has as its system Aspergillus nidulans ATCC 38163 (strain L). Described as above. Format: cell-based. To be noted: strain L; spores. The protocol:
as §1, §2, §4, §5

Test [9] concerns Aspergillus terreus ATCC MYA-3633 (strain M). The description is as above. Format: cell-based. To be noted: strain M, all compounds, spores. The protocol:
as §1, §2, §4, §5

For test [10], the system named is Candida parapsilosis ATCC 22019 (strain J). In words: Antifungal MIC determination (CLSI M27-A3, 96-well). Format: cell-based. To be noted: strain J; for MIC-0: compounds 1-4n and AmB, 48 h, RPMI 1640. The procedure: as §1, §2, §3
Test [11] deals with Candida krusei ATCC 6258 (strain I). The test is described as above. The following applies: strain I; for MIC-0: compounds 1-4n and AmB, 48 h, RPMI 1640. Format: cell-based. The procedure:
as §1, §2, §3

For test [12], the system named is Candida glabrata ATCC 2001 (strain H). Described as above. Format: cell-based. The following applies: strain H; for MIC-0: compounds 1-4n and AmB, 48 h, RPMI 1640. The procedure: as §1, §2, §3
Test [13] deals with Candida albicans ATCC 10231 (strain A). The description is as above. Format: cell-based. To be noted: strain A; compounds 1-4n and AmB; 48 h, RPMI 1640. The procedure: as §1, §2, §3

Converted amounts (≈) assume the structure as drawn.

On to `CC(C)CCn1sc2ccccc2c1=O` [Compound 3f], for which the MIC-0 is 0.78 µg/mL (≈ 3.52 µM) in test [1]; 1.56 µg/mL (≈ 7.05 µM) in test [2]; 1.56 µg/mL (≈ 7.05 µM) in [3]; 0.78 µg/mL (≈ 3.52 µM) in test [4]; 0.78 µg/mL (≈ 3.52 µM) in [5]; 0.78 µg/mL (≈ 3.52 µM) in test [6]. Also, the MIC-0 turned out to be 0.20 µg/mL (≈ 0.904 µM) in [7]; 0.02 µg/mL (≈ 0.0904 µM) in [8]; 0.10 µg/mL (≈ 0.452 µM) in test [9]; 1.56 µg/mL (≈ 7.05 µM) in [10]; 0.39 µg/mL (≈ 1.76 µM) in test [11]; 1.56 µg/mL (≈ 7.05 µM) in test [12]. In addition, in [13], the MIC-0 worked out at 1.56 µg/mL (≈ 7.05 µM).
For the molecule `O=c1c2ccccc2sn1-c1ccccn1` [Compound 2m], the MIC-0 was 6.25 µg/mL (≈ 27.4 µM) in test [1]; 12.5 µg/mL (≈ 54.8 µM) in test [2]; 6.25 µg/mL (≈ 27.4 µM) in [3]; 6.25 µg/mL (≈ 27.4 µM) in [4]; 6.25 µg/mL (≈ 27.4 µM) in test [5]; 6.25 µg/mL (≈ 27.4 µM) in test [6]. Besides, the MIC-0 in test [7] was 12.5 µg/mL (≈ 54.8 µM); in test [8], 12.5 µg/mL (≈ 54.8 µM); in [9] it was 12.5 µg/mL (≈ 54.8 µM); in test [10], 12.5 µg/mL (≈ 54.8 µM); in test [11] it was 6.25 µg/mL (≈ 27.4 µM); in test [12], 12.5 µg/mL (≈ 54.8 µM). In addition, the MIC-0 in test [13] came out at 6.25 µg/mL (≈ 27.4 µM).
Take `O=c1c2ccccc2sn1-c1ccc(Br)cc1` [Compound 2d]: the MIC-0 amounted to 0.78 µg/mL (≈ 2.55 µM) in [1]; 1.56 µg/mL (≈ 5.09 µM) in test [2]; 3.13 µg/mL (≈ 10.2 µM) in test [3]; 3.13 µg/mL (≈ 10.2 µM) in test [4]; 1.56 µg/mL (≈ 5.09 µM) in test [5]; 3.13 µg/mL (≈ 10.2 µM) in test [6]. The MIC-0 amounted to 12.5 µg/mL (≈ 40.8 µM) in test [7]; 12.5 µg/mL (≈ 40.8 µM) in test [8]; 12.5 µg/mL (≈ 40.8 µM) in test [9]; 6.25 µg/mL (≈ 20.4 µM) in test [10]; 3.13 µg/mL (≈ 10.2 µM) in test [11]; 6.25 µg/mL (≈ 20.4 µM) in [12]. The molecule further showed an MIC-0 in [13] of 3.13 µg/mL (≈ 10.2 µM).
With `Cc1cc(C)cc(-n2sc3ccccc3c2=O)c1` [Compound 2j], the MIC-0 in [1] came out at 0.78 µg/mL (≈ 3.05 µM); in test [2] it was 1.56 µg/mL (≈ 6.11 µM); in test [3] it was 3.13 µg/mL (≈ 12.3 µM); in test [4], 12.5 µg/mL (≈ 49 µM); in [5], 3.13 µg/mL (≈ 12.3 µM); in [6], 6.25 µg/mL (≈ 24.5 µM). Besides, the MIC-0 in [7], in [8], in test [9], in [10], in test [11] and in test [12] was 12.5 µg/mL (≈ 49 µM) throughout. In test [13], this molecule displayed an MIC-0 of 3.13 µg/mL (≈ 12.3 µM).
Regarding `COc1cc(OC)cc(-n2sc3ccccc3c2=O)c1` [Compound 2k], the MIC-0 in test [1] amounted to 1.56 µg/mL (≈ 5.43 µM); in test [2], 3.13 µg/mL (≈ 10.9 µM); in [3] it was 12.5 µg/mL (≈ 43.5 µM); in test [4], 3.13 µg/mL (≈ 10.9 µM); in test [5], 12.5 µg/mL (≈ 43.5 µM); in test [6], 12.5 µg/mL (≈ 43.5 µM). Further, the MIC-0 in [7], in test [8], in test [9], in test [10], in test [11] and in test [12] was 6.25 µg/mL (≈ 21.8 µM) throughout. Moreover, the MIC-0 in test [13] was 12.5 µg/mL (≈ 43.5 µM).
Usually MIC stands for the smallest concentration in the dilution series that meets the test's criterion for growth inhibition. Turning to `CCC(C)n1ncn(-c2ccc(N3CCN(c4ccc(OCC5COC(Cn6cncn6)(c6ccc(Cl)cc6Cl)O5)cc4)CC3)cc2)c1=O` (stereo not shown) [ITC, itraconazole, reference compound], the MIC in [7] (Aspergillus flavus, read-out: MIC-0) turned out to be 0.48 µg/mL (≈ 0.68 µM); in test [9] (Aspergillus terreus, read-out: MIC-0), 0.975 µg/mL (≈ 1.38 µM); in [10] (Lodderomyces parapsilosis, ATCC22019, azoles, read-out: MIC-2) it was 0.12 µg/mL (≈ 0.17 µM); in test [11] (Pichia kudriavzevii, ATCC6258, azoles, read-out: MIC-2) it was 0.48 µg/mL (≈ 0.68 µM); in test [12] (Nakaseomyces glabratus, ATCC2001, azoles, read-out: MIC-2) it was 7.8 µg/mL (≈ 11.1 µM).

The values are drawn from patent publication US10544112B2, “Identification of ebsulfur analogues with broad-spectrum antifungal activity” (priority 2017, dated 2020).
